From the NIST ThermoML archive (doi:10.1021/je060271a)

Details: 303.15 K, Liquid, Vibrating tube method

CCCCCCCC(=O)OCC(COC(=O)CCCCCCC)(COC(=O)CCCCCCC)COC(=O)CCCCCCC [pentaerythritol tetraoctanoate]
Details	mass density [kg/m3]
2156.4 kPa	956.7
2179.1 kPa	956.6
2206.4 kPa	956.8
2234.6 kPa	956.8
2258 kPa	956.7
2287 kPa	956.8
2316.5 kPa	956.9
2341.8 kPa	956.8
2372.4 kPa	956.7
2402.9 kPa	957
2429.4 kPa	956.7
2462 kPa	956.8
2495.8 kPa	956.9
2524.1 kPa	957
2559.1 kPa	956.9
2596.2 kPa	957.1
2642 kPa	957
2696.3 kPa	957.1
2784.7 kPa	957.1
2865.2 kPa	957.2
2954.3 kPa	957.3
3081.5 kPa	957.2
3108.7 kPa	957.4
3121.2 kPa	957.4
3136.3 kPa	957.4
3151.3 kPa	957.4
3164 kPa	957.4
3179.1 kPa	957.5
3193.3 kPa	957.4
3204.5 kPa	957.4
3218.1 kPa	957.4
3229.7 kPa	957.4
3242.8 kPa	957.4
3256.4 kPa	957.5
3270.2 kPa	957.4
3284.1 kPa	957.5
3580.6 kPa	957.6
3702.5 kPa	957.6
3720 kPa	957.5
3734.9 kPa	957.7
3753.7 kPa	957.7
3901.1 kPa	957.9
4311.5 kPa	958.1
4330 kPa	958
4352.8 kPa	958.1
4371.7 kPa	958.1
4395.1 kPa	958.1
4412.6 kPa	958.1
4416.5 kPa	958.2
4419.7 kPa	958.2
4422.8 kPa	958.2
4423.3 kPa	958.2
4424.2 kPa	958.1
4426.8 kPa	958.2
4435.8 kPa	958.1
4446.7 kPa	958.3
4455.8 kPa	958.2
4466.6 kPa	958
4475.6 kPa	958.1
4486.7 kPa	958.2
4542.6 kPa	958.3
4584.4 kPa	958.1
4608.3 kPa	958.4
4628.1 kPa	958.3
4651.8 kPa	958.3
4675.6 kPa	958.3
4696.6 kPa	958.2
4717 kPa	958.3
4742.3 kPa	958.4
4763.2 kPa	958.3
4788.5 kPa	958.3
4809.9 kPa	958.5
4835.7 kPa	958.4
4857.2 kPa	958.4
4981.8 kPa	958.4
5009.3 kPa	958.4
5033 kPa	958.5
5062 kPa	958.5
5085.4 kPa	958.5
5113.6 kPa	958.5
5138.1 kPa	958.6
5167.4 kPa	958.5
5197.3 kPa	958.7
5221.9 kPa	958.5
5251.8 kPa	958.7
5277.7 kPa	958.7
5335.3 kPa	958.6
5367.5 kPa	958.6
5396 kPa	958.7
5428.7 kPa	958.7
5455.7 kPa	958.7
5489.1 kPa	958.8
5517.5 kPa	958.8
5552 kPa	958.7
5581.6 kPa	958.8
5767 kPa	959
5794 kPa	959.1
5810.8 kPa	959
5827.4 kPa	959
5847.7 kPa	959
5864.7 kPa	959.1
5884.7 kPa	959.1
5905.3 kPa	959.1
5922.3 kPa	959.1
5943.2 kPa	959
5960.8 kPa	959.2
5981.9 kPa	959.1
5999.7 kPa	959.2
6021.7 kPa	959.2
6040 kPa	959.2
6060.9 kPa	959.1
6079.2 kPa	959.1
6100.3 kPa	959.1
6121.9 kPa	959.2
6140.7 kPa	959.2
6163.6 kPa	959.3
6182 kPa	959.2
6204.5 kPa	959.3
6223.9 kPa	959.3
6247 kPa	959.2
6267.1 kPa	959.2
6290.2 kPa	959.3
6308.9 kPa	959.3
6332.4 kPa	959.2
6355.9 kPa	959.3
6375.8 kPa	959.2
6400.1 kPa	959.3
6445.1 kPa	959.4
6470.5 kPa	959.3
6490.8 kPa	959.3
6583.6 kPa	959.4
6610.2 kPa	959.4
6631.8 kPa	959.5
6658.3 kPa	959.5
6679.2 kPa	959.5
6705.9 kPa	959.6
6728.4 kPa	959.5
6755.2 kPa	959.5
6783 kPa	959.5
6805.9 kPa	959.6
6833.9 kPa	959.6
6861.7 kPa	959.7
6913.4 kPa	959.7
7101.4 kPa	959.8
7125.9 kPa	959.9
7156.7 kPa	959.7
7182.6 kPa	959.8
7214 kPa	959.8
